Test results taken from ChEMBL document CHEMBL6178010, “XPO1-Targeting Selective Inhibitors of Transcriptional Activation Suppress Graft-versus-Host Disease” (J Med Chem, 2025).
Activity calls are given as the source filed them. The calls are words filed in the database; no cut-off is given here.

Columns and labels:
[1] = target: T1, Exportin-1 (Homo sapiens, UniProt O14980); test: Inhibition of XPO1 in PMA/ionomycin-activated human Jurkat cells expressing IL-2 promoter reporter gene assessed as suppression of IL-2 transcriptional activity incubated for 6 hrs by Bright-Glo Luciferase assay; type: cell-based
T1 sequence (O14980 whole entry): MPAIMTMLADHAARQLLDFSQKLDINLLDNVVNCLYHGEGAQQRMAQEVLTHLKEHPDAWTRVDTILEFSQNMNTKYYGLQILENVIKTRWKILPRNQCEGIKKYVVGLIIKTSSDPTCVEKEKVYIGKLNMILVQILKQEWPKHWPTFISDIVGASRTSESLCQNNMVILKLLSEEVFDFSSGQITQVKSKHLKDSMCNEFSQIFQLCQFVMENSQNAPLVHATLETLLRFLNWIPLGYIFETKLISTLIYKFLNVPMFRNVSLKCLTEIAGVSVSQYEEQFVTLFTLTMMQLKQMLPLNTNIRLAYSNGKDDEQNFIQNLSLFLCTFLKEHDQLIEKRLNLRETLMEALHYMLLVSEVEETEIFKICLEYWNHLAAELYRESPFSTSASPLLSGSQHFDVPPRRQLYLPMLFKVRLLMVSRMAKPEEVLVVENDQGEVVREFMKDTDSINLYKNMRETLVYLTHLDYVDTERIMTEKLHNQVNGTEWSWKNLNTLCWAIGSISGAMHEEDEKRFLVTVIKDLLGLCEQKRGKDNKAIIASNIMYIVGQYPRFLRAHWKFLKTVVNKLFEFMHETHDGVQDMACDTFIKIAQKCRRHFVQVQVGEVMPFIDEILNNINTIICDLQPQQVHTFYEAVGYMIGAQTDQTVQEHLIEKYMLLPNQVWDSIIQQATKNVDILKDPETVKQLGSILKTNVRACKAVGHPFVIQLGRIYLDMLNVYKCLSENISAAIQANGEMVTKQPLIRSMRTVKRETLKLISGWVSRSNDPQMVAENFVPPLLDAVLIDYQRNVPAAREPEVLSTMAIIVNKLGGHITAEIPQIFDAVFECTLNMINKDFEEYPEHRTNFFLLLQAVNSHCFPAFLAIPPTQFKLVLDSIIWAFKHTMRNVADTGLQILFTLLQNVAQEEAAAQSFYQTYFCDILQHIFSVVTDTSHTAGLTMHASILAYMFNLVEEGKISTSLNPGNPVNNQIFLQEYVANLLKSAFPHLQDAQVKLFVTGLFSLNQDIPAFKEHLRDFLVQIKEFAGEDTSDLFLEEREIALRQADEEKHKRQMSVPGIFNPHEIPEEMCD

[2] = test system: Jurkat; test: Cytotoxicity against human Jurkat cells assessed as suppression of cell viability incubated for 24 hrs by CellTiter-Glo assay; type: functional, cell-based
[3] = test system: XPO1; test: Selectivity ratio of EC50 for cytotoxicity against human Jurkat cells assessed as suppression of cell viability to EC50 for inhibition of XPO1 in PMA/ionomycin-activated human Jurkat cells expressing IL-2 promoter reporter gene assessed as suppression of IL-2 transcriptional activity; type: toxicity, cell-based; details: read-out: Ratio EC50
[4] = test system: Jurkat; test: Downregulation of IL-2 mRNA level in PMA/ionomycin-activated human Jurkat cells expressing XPO1 C528S mutant at 100 nM incubated for 6 hrs by RT-qPCR analysis; type: functional, cell-based
[5] = Metabolic stability in mouse liver microsome assessed as half life; type: ADME; details: liver microsomes
[6] = Metabolic stability in mouse liver microsome assessed as intrinsic clearance; type: ADME; details: liver microsomes, read-out: CLH
[7] = target: T1, Exportin-1; test: Inhibition of selinexor-alkyne binding to XPO1 at Cys528 in human Jurkat cells up to 300 nM pretreated for 1 hr followed by addition of selinexor-alkyne measured after 1 hr by In-gel fluorescence analysis; type: cell-based; details: time 2.0 hrs
[8] = test system: Jurkat; test: Cytotoxicity against human Jurkat cells expressing XPO1 C528S mutant assessed as suppression of cell viability up to 1000 nM incubated for 24 hrs by CellTiter-Glo assay; type: functional, cell-based
[9] = Drug exposure in mouse administered intraperitoneally; type: ADME; details: in vivo, ip
[10] = test system: Mus musculus; test: Suppression of T-cell activation in irradiated BALB/c mouse transplanted with bone marrow/splenic T-cells from C57BL/6 mouse assessed as downregulation of IFNG in host spleen at 10 mg/kg, ip administered daily for 7 days by RT-qPCR analysis; type: functional, organism-based; details: time 7.0 day
[11] = test system: Mus musculus; test: Suppression of T-cell activation in irradiated BALB/c mouse transplanted with bone marrow/splenic T-cells from C57BL/6 mouse assessed as downregulation of CSF2 in host spleen at 10 mg/kg, ip administered daily for 7 days by RT-qPCR analysis; type: functional, organism-based; details: time 7.0 day
[12] = test system: Mus musculus; test: Anti-inflammatory activity in irradiated BALB/c mouse transplanted with bone marrow/splenic T-cells from C57BL/6 mouse assessed as suppression of CD3 positive T-cell infiltration in host liver at 10 mg/kg, ip qd administered daily for 7 days by IHC analysis; type: functional, organism-based; details: time 7.0 day
[13] = Toxicity in mouse assessed as neutropenia at 10 mg/kg, ip administered daily for 5 days by CBC analysis; type: organism-based; details: in vivo, 120 h, time 5 day
[14] = Toxicity in mouse assessed as leukopenia at 10 mg/kg, ip administered daily for 5 days by CBC analysis; type: organism-based; details: in vivo, 120 h, time 5 day
[15] = target: T1, Exportin-1; test: Covalent binding affinity to XPO1 in human Jurkat cells at 0.6 to 123 nM by In-gel fluorescence analysis; type: cell-based; details: dose 0.6-123 nM
[16] = target: Exportin-1 (Mus musculus) (UniProt Q6P5F9); test: In vivo binding affinity to XPO1 in mouse spleen at 10 mg/kg, ip qd administered for 5 days by Western blot analysis; type: functional, organism-based; details: time 5.0 day
Exportin-1 (Mus musculus), sequence (Q6P5F9 whole entry): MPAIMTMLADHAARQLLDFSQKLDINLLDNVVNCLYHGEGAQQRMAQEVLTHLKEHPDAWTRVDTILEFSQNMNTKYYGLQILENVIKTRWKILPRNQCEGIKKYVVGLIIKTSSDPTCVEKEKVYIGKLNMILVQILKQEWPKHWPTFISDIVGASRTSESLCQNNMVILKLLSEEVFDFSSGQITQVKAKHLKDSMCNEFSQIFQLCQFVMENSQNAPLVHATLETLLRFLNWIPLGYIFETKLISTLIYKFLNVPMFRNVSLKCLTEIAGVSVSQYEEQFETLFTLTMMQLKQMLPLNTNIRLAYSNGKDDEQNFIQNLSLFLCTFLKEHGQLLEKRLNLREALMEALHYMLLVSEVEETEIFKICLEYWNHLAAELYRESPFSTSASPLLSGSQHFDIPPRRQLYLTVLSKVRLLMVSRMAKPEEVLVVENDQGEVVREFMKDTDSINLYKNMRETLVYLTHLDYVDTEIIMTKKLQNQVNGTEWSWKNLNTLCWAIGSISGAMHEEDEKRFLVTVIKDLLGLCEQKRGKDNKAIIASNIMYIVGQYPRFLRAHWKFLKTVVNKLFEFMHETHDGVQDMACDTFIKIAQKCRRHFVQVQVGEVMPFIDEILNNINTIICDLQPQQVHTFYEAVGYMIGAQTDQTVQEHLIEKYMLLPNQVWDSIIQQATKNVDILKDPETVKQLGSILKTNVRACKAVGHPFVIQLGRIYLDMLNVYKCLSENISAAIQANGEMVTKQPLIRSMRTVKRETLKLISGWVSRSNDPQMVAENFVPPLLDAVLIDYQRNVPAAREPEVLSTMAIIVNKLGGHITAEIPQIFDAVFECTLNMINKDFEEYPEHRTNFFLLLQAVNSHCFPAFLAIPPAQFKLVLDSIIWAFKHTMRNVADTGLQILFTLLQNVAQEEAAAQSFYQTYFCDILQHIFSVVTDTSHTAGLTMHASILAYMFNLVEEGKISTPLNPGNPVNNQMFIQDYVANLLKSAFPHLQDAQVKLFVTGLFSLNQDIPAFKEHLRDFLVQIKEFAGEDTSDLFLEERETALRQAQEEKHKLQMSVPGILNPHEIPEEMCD

[17] = target: Exportin-1 (Mus musculus) (UniProt Q6P5F9); test: In vivo binding affinity to XPO1 in mouse liver at 10 mg/kg, ip qd administered for 5 days by Western blot analysis; type: functional, organism-based; details: time 5.0 day
[18] = target: Exportin-1 (Mus musculus) (UniProt Q6P5F9); test: In vivo binding affinity to XPO1 in mouse kidney at 10 mg/kg, ip qd administered for 5 days by Western blot analysis; type: functional, organism-based; details: time 5.0 day
[19] = test system: Jurkat; test: Downregulation of IL-2 mRNA level in PMA/ionomycin-activated human Jurkat cells expressing XPO1 C528S mutant at 10 nM incubated for 6 hrs by RT-qPCR analysis; type: functional, cell-based
[20] = test system: Jurkat; test: Cytotoxicity against human Jurkat cells expressing XPO1 C528S mutant assessed as suppression of cell viability up to 100 nM incubated for 24 hrs by CellTiter-Glo assay; type: functional, cell-based
[21] = target: T1, Exportin-1; test: Inhibition of selinexor-alkyne binding to XPO1 at Cys528 in human Jurkat cells up to 10 nM pretreated for 1 hr followed by addition of selinexor-alkyne measured after 1 hr by In-gel fluorescence analysis; type: cell-based; details: time 2.0 hrs
[22] = test system: Mus musculus; test: Anti-inflammatory activity in irradiated BALB/c mouse transplanted with bone marrow/splenic T-cells from C57BL/6 mouse assessed as reduction in animal lethality at 10 mg/kg, ip administered daily measured for 8 days; type: functional, organism-based; details: time 8.0 day
[23] = test system: Jurkat; test: Cytotoxicity against human Jurkat cells expressing XPO1 C528S mutant assessed as suppression of cell viability up to 10000 nM incubated for 24 hrs by CellTiter-Glo assay; type: functional, cell-based
[24] = target: T1, Exportin-1; test: Covalent binding affinity to XPO1 in human Jurkat cells at 4 to 1000 nM by In-gel fluorescence analysis; type: cell-based; details: dose 4-1000 nM
[25] = target: Exportin-1 (Mus musculus) (UniProt Q6P5F9); test: In vivo binding affinity to XPO1 in mouse spleen at 1 to 9 mg/kg, ip qd administered for 5 days by Western blot analysis; type: functional, organism-based; details: dose 1-9 mg/kg, time 5.0 day
[26] = target: Exportin-1 (Mus musculus) (UniProt Q6P5F9); test: In vivo binding affinity to XPO1 in mouse liver at 1 to 9 mg/kg, ip qd administered for 5 days by Western blot analysis; type: functional, organism-based; details: dose 1-9 mg/kg, time 5.0 day
[27] = target: Exportin-1 (Mus musculus) (UniProt Q6P5F9); test: In vivo binding affinity to XPO1 in mouse kidney at 1 to 9 mg/kg, ip qd administered for 5 days by Western blot analysis; type: functional, organism-based; details: dose 1-9 mg/kg, time 5.0 day
[28] = test system: Mus musculus; test: Anti-inflammatory activity in irradiated BALB/c mouse transplanted with bone marrow/splenic T-cells from C57BL/6 mouse assessed as suppression of IFNG mRNA level in host spleen administered as ip dose for 7 days by RT-qPCR analysis; type: functional, organism-based; details: dose 10-100 mg/kg, time 7.0 day
[29] = test system: Mus musculus; test: Anti-inflammatory activity in irradiated BALB/c mouse transplanted with bone marrow/splenic T-cells from C57BL/6 mouse assessed as suppression of CSF2 mRNA level in host spleen administered as ip dose for 7 days by RT-qPCR analysis; type: functional, organism-based; details: dose 10-100 mg/kg, time 7.0 day
[30] = test system: Mus musculus; test: Anti-inflammatory activity in irradiated BALB/c mouse transplanted with bone marrow/splenic T-cells from C57BL/6 mouse assessed as increase in CD3 positive CD4 positive T cells in host spleen at 1 to 10 mg/kg, ip administered for 7 days by flow cytometry analysis; type: functional, organism-based; details: dose 1-10 mg/kg, time 7.0 day
[31] = test system: Mus musculus; test: Anti-inflammatory activity in irradiated BALB/c mouse transplanted with bone marrow/splenic T-cells from C57BL/6 mouse assessed as decrease in CD3 positive CD8 positive T cells in host spleen at 1 to 10 mg/kg, ip administered for 7 days by flow cytometry analysis; type: functional, organism-based; details: dose 1-10 mg/kg, time 7.0 day
[32] = test system: Mus musculus; test: Anti-inflammatory activity in irradiated BALB/c mouse transplanted with bone marrow/splenic T-cells from C57BL/6 mouse assessed as improvement in animal survival at 3 mg/kg, ip administered daily for 21 days; type: functional, organism-based; details: time 21.0 day
[33] = test system: Jurkat; test: Downregulation of IL-2 mRNA level in PMA/ionomycin-activated human Jurkat cells expressing XPO1 C528S mutant at 200 nM incubated for 6 hrs by RT-qPCR analysis; type: functional, cell-based
[34] = test system: Mus musculus; test: Anti-inflammatory activity in irradiated BALB/c mouse transplanted with bone marrow/splenic T-cells from C57BL/6 mouse assessed as suppression of CCL3 mRNA level in host spleen administered as ip dose for 7 days by RT-qPCR analysis; type: functional, organism-based; details: dose 10-100 mg/kg, time 7.0 day
[35] = test system: Mus musculus; test: Anti-inflammatory activity in irradiated BALB/c mouse transplanted with bone marrow/splenic T-cells from C57BL/6 mouse assessed as suppression of TNF mRNA level in host spleen administered as ip dose for 7 days by RT-qPCR analysis; type: functional, organism-based; details: dose 10-100 mg/kg, time 7.0 day
[36] = test system: Mus musculus; test: Anti-inflammatory activity in irradiated BALB/c mouse transplanted with bone marrow/splenic T-cells from C57BL/6 mouse assessed as healthy appearance of animal at 1 to 10 mg/kg, ip administered for 7 days; type: functional, organism-based; details: dose 1-10 mg/kg, time 7.0 day
[37] = test system: Mus musculus; test: Anti-inflammatory activity in irradiated BALB/c mouse transplanted with bone marrow/splenic T-cells from C57BL/6 mouse assessed as active behaviour of animal at 1 to 10 mg/kg, ip administered for 7 days; type: functional, organism-based; details: dose 1-10 mg/kg, time 7.0 day
[38] = Toxicity in irradiated BALB/c mouse transplanted with bone marrow/splenic T-cells from C57BL/6 mouse assessed as drug tolerance at 3 mg/kg, ip administered daily for 21 days; type: organism-based; details: in vivo, 504 h, time 21 day

CC1=CC(=O)N(Nc2nc(N3CCCC3)nn3cccc23)C1=O
EC50 [1]: 34 nM | EC50 [2]: 240 nM | selectivity ratio [3]: 7.1 | Activity [4]: inactive | half-life [5]: > 1 h | microsomal CLint [6]: < 23 µL/min/mg | inhibition [7]: Active | Activity [8]: inactive | Drug uptake [9]: Active

CC1=CC(=O)N(Nc2cc(C(F)(F)F)cc(C(F)(F)F)c2)C1=O
half-life [5]: > 1 h | microsomal CLint [6]: < 23 µL/min/mg | Activity [10]: Active; Compound Showed Stronger Effect Than Sp100030 | Activity [11]: Active; Compound Showed Stronger Effect Than Sp100030 | Activity [12]: Active | Activity [13]: Non-toxic | Activity [14]: Non-toxic | Drug uptake [9]: Active

C#Cc1cc(NN2C(=O)C=C(C)C2=O)cc(C(F)(F)F)c1
Activity [15]: Active | Activity [16]: Active | Activity [17]: Active | Activity [18]: Active

CC1=CC(=O)N(Nc2ccc(C(F)(F)F)c(N3CC4CC4C3)n2)C1=O (stereo unspecified)
EC50 [1]: 1 nM | EC50 [2]: 30.4 nM | selectivity ratio [3]: 30.4 | Activity [19]: inactive | Activity [20]: Active | half-life [5]: < 0.167 h | microsomal CLint [6]: > 139 µL/min/mg | inhibition [21]: Active

O=C(/C=C\n1cnc(-c2cc(C(F)(F)F)cc(C(F)(F)F)c2)n1)NNc1cnccn1 [SELINEXOR]
Activity [13]: Toxic | Activity [14]: Toxic | Activity [22]: inactive

CC1=CC(=O)N(Nc2ccc(C(F)(F)F)c(N(C)C)n2)C1=O
EC50 [1]: 8.3 nM | EC50 [2]: 696 nM | selectivity ratio [3]: 83.9 | Activity [4]: inactive | Activity [23]: Active | inhibition [21]: Active

C#Cc1cc2c(NN3C(=O)C=C(C)C3=O)nc(C(F)(F)F)nn2c1
Activity [24]: Active | Activity [25]: Active | Activity [26]: Active | Activity [27]: Active

CC1=CC(=O)N(Nc2nc(C(F)(F)F)nn3cccc23)C1=O
EC50 [1]: 31 nM | EC50 [2]: 270 nM | selectivity ratio [3]: 8.7 | half-life [5]: > 1 h | microsomal CLint [6]: < 23 µL/min/mg | Activity [10]: Active; Compound Showed Stronger Effect Than Sp100030 | Activity [11]: Active; Compound Showed Stronger Effect Than Sp100030 | Activity [12]: Active | Activity [28]: Dose-dependent-effect | Activity [29]: Dose-dependent-effect | Activity [30]: Active | Activity [31]: Active | Activity [32]: Active | Activity [13]: Non-toxic | Activity [14]: Non-toxic | inhibition [7]: Active | Activity [33]: inactive | Activity [8]: inactive | Drug uptake [9]: Active | Activity [34]: Dose-dependent-effect | Activity [35]: Dose-dependent-effect | Activity [36]: Active | Activity [37]: Active | Activity [38]: Non-toxic

CC1=CC(=O)N(Nc2ccc(C(F)(F)F)c(N3CCCC3)n2)C1=O
EC50 [1]: 2 nM | EC50 [2]: 92 nM | selectivity ratio [3]: 46 | half-life [5]: < 0.167 h | microsomal CLint [6]: > 139 µL/min/mg
